Values of other authors in patent US10314326B2, “Composition for reducing food intake” (Natures Remedies Ltd, priority 2009, dated 2019).
Read-outs that look alike come from different tables or passages of the source. No end group written: not given here.

Columns and labels:
[1] = literature; for reduction in food/calorie intake: pharmacological options
[2] = peripheral injection, rats
[3] = peripheral injection, human subjects
[4] = 14 healthy volunteers
[5] = approximately 20 g per day for 7 days, human volunteers

Compound: CNCCC(Oc1ccc(C(F)(F)F)cc1)c1ccccc1 (stereo not drawn) [fluoxetin]
- reduction in food/calorie intake [1]: 13-16%

Compound: beta-glucan
- food intake and appetite ratings [1]: not significantly reduced

Compound: sodium alginate
- reduction in energy intake ([1]; human studies): 7%

Compound: glucagon-like peptide-1 (7-36) amide (HAEGTFTSDVSSYLEGQAAKEFIAWLVKGR-NH2; UniProt P01275 98-127, looked up) [GLP-1, anorectic gut peptide secreted by the L-cells]
- body weight [2]: decreases
- food intake [2]: decreases
- body weight [3]: decreases
- food intake [3]: decreases
- motility in the antro-duodeno-jejunal region [4]: decreases

Compound: O=C(O)CC(O)(C(=O)O)C(O)C(=O)O (stereo not drawn) [HCA-SX, hydroxycitric acid]
- decrease in food intake ([1]; human studies): 4%

Compound: CC(C)CC(N(C)C)C1(c2ccc(Cl)cc2)CCC1 (stereo not drawn) [sibutramine]
- reduction in food/calorie intake [1]: 12-26%

Compound: CCN(CC)C(C)C(=O)c1ccccc1 (stereo not drawn) [diethylpropion]
- reduction in food/calorie intake [1]: 11-15%

Compound: methylcellulose
- food intake and appetite ratings [1]: not significantly reduced

Compound: oligofructose
- reduction in total intake ([1]; human studies): 5%
- serum GLP-1 levels [5]: increased

Compound: fructooligosaccharides
- food intake and appetite ratings [1]: not significantly reduced
